In patent US20140044797A1, “PROSTACYCLIN AND ANALOGS THEREOF ADMINISTERED DURING SURGERY FOR PREVENTION AND TREATMENT OF CAPILLARY LEAKAGE” (Rigshospitalet, priority 2011, published 2014):

Legend:
[1] = in vivo; cited from earlier work
[2] = test system: blood coagulation; experiment: Thrombelastography (TEG) of whole blood during Flolan infusion; format: in vivo, healthy humans; conditions: Flolan 4 ng/kg/min i.v. for 2 h; samples after 60 and 120 min infusion vs baseline; 6 healthy volunteers; kaolin
Description: The TEG analyzer uses a small whole blood sample in a rotating cup and a pin suspended in the blood by a torsion wire, which is monitored for motion. To speed up the clot formation, a standardized amount of an activator of coagulation (e.g. Kaolin, tissue factor) may be added to the cup just before the pin is placed in the cup. The torque of the rotating cup is transmitted to the immersed pin only after fibrin and/or fibrin-platelet bonding has linked the cup and pin together. The strength and rate of these bonds affect the magnitude of the pin motion such that strong clots move the pin directly in phase with cup motion. Thus, the TEG technology documents the interaction of platelets with the protein coagulation cascade from the time of placing the blood in the analyzer until initial fibrin formation, clot rate strengthening and fibrin-platelet bonding via GPIIb/IIIa, through eventual clot lysis. The TEG R parameter reflects the initiation phase, reaction time, from start of coagulation until the first fibrin band is formed; the Angle (α) represents the increase in clot strength, clot kinetics, correlating with the thrombin generation. The maximal amplitude (MA) parameter reflects maximal clot strength i.e. the maximal elastic modus of the clot.
Six healthy volunteers were administered Flolan (prostacyclin analog) intravenously at a dose of 4 ng/kg/min for 2 h. Blood samples for whole blood viscoelastical assay (Thrombelastography [TEG]) and whole blood platelet aggregation (Multiplate) was obtained before infusion of Flolan, after 60 min infusion of Flolan and after 120 min infusion of Flolan.
With regard to the TEG assay this was performed as recommended by the manufacturer and 340 μl are mixed with 20 μl CaCl 0.2 M (final concentration 11.1 mM in the cup) and kaolin at 37° C. after which the haemostatic activity was recorded as shown in WO 2010/075861.

[3] = test system: platelet aggregation; experiment: Multiplate whole blood impedance aggregometry during Flolan infusion; format: in vivo, healthy humans; conditions: Flolan 4 ng/kg/min i.v. for 2 h; after 60 and 120 min infusion; any of the agonists investigated (ASPI, COL, TRAP, ADP); 6 volunteers
Description: Multiplate whole blood aggregometry is a platelet function test, (Multiplate®, Dynabyte Medical, Munich, Germany). […] The increase of impedance by the attachment of platelets onto the Multiplate sensors is transformed to arbitrary aggregation units (AU) and plotted against time. The aggregation can then be measured in AUC*min (area under the curve*min) determined by the plot of units against time. Additionally, the aggregation can also be expressed in units (U) (1 unit=10 AU*min). Multiplate thereby allows analyzing the effect of compounds on platelet aggregation. […] Blood samples for whole blood viscoelastical assay (Thrombelastography [TEG]) and whole blood platelet aggregation (Multiplate) was obtained before infusion of Flolan, after 60 min infusion of Flolan and after 120 min infusion of Flolan. Whole blood impedance aggregometry was analyzed by the Multiple Platelet function Analyzer (MultiPlate® analyzer). […]

[4] = test system: thrombomodulin; experiment: Plasma biomarker ELISA after Flolan infusion: thrombomodulin; format: in vivo, healthy individuals; conditions: 4 ng/kg/min i.v. for 2 h; 8 healthy volunteers; plasma 0-24 h; effect continuing several hours after ceasing infusion
Description: (§1) Eight healthy volunteers were administered Flolane (Prostacyclin) intravenously at a dose of 4 ng/kg/min for 2 h. Blood samples were analyzed for plasma biomarkers indicative of endothelial cell (thrombomodulin, PAI-1) and glycocalyx (syndecan-1) activation and/or damage, cellular necrosis (histone-complexed DNA fragments, HMGB1) and anticoagulation (protein C, antithrombin, TFPI) at the following time points: Before the infusion (0 h), immediately after ceasing the infusion (2 h) and then 4 h, 5 h, 6 h, 8 h and 24 h after starting the infusion.
(§2) The concentration of the individual biomarkers in plasma was analyzed by commercially available ELISA kits according to the manufactures recommendations. Paired t-tests with p-values <0.05 were considered significant.

[5] = test system: Protein C; experiment: Plasma biomarker ELISA after Flolan infusion: Protein C; format: in vivo, healthy individuals; conditions: 4 ng/kg/min i.v. for 2 h; 8 healthy volunteers; in the hours after ceasing the infusion
Description: as §1, §2

[6] = test system: PAI-1; experiment: Plasma biomarker ELISA after Flolan infusion: PAI-1; format: in vivo, healthy individuals; conditions: 4 ng/kg/min i.v. for 2 h; 8 healthy volunteers; plasma 0-24 h
Description: as §1, §2

[7] = test system: antithrombin; experiment: Plasma biomarker ELISA after Flolan infusion: antithrombin; format: in vivo, healthy individuals; conditions: 4 ng/kg/min i.v. for 2 h; 8 healthy volunteers; plasma 0-24 h
Description: as §1, §2

[8] = test system: histone-complexed DNA fragments; experiment: Plasma biomarker ELISA after Flolan infusion: histone-complexed DNA fragments; format: in vivo, healthy individuals; conditions: 4 ng/kg/min i.v. for 2 h; 8 healthy volunteers; plasma 0-24 h
Description: as §1, §2

[9] = test system: HMGB1; experiment: Plasma biomarker ELISA after Flolan infusion: HMGB1; format: in vivo, healthy individuals; conditions: 4 ng/kg/min i.v. for 2 h, 8 healthy volunteers
Description: as §1, §2

[10] = test system: syndecan-1; experiment: Plasma biomarker ELISA after Flolan infusion: syndecan-1; format: in vivo, healthy individuals; conditions: 4 ng/kg/min i.v. for 2 h; 8 healthy volunteers; plasma 0-24 h
Description: as §1, §2

[11] = test system: TFPI; experiment: Plasma biomarker ELISA after Flolan infusion: TFPI; format: in vivo, healthy individuals; conditions: 4 ng/kg/min i.v. for 2 h; 8 healthy volunteers; plasma 0-24 h
Description: as §1, §2

[12] = epoprostenol sodium compared with iloprost; cited from earlier work
[13] = infusion in doses below 2 ng/kg/minute; cited from earlier work

CC#CCC(C)[C@H](O)/C=C/[C@@H]1[C@H]2c3cccc(CCCC(=O)O)c3O[C@H]2C[C@H]1O (mixture of isomers) [beraprost]
half time [1]: 35 to 40 min

CCCCC[C@H](O)/C=C/[C@@H]1[C@H]2C/C(=C/CCCC(=O)O)O[C@H]2C[C@H]1O [Flolan, epoprostenol sodium]
TEG Angle vs baseline [2]: No significant difference | TEG MA vs baseline [2]: No significant difference | TEG R vs baseline [2]: No significant difference | Multiplate values vs baseline [3]: no significant difference | circulating level of thrombomodulin [4]: marked decrease | circulating level of Protein C [5]: decreased | circulating level of PAI-1 [6]: declined | circulating level of antithrombin [7]: decreased | cell necrosis biomarker histone-complexed DNA fragments [8]: did not influence | HMGB1 at 5 h ([9]; 5 h after starting infusion, p=0.056): tendency towards a reduction | cell necrosis biomarker HMGB1 ([9]; plasma 0-24 h): did not influence | glycocalyx shedding (syndecan-1) [10]: did not induce or influence | circulating level of TFPI [11]: did not induce or influence glycocalyx shedding (syndecan-1) (FIG. 6A) or affected the circulating level of TFPI | half time [1]: 0.5 to 3 min | relative potency [12]: equipotent | duration of hypotensive episodes [13]: 1 to 2 h | side effects: bleeding tendency [13]: no bleeding tendency | side effects: hypotensive episodes [13]: a few self-limiting hypotensive episodes

CC#CCC(C)[C@H](O)/C=C/[C@@H]1[C@H]2C/C(=C/CCCC(=O)O)C[C@H]2C[C@H]1O (stereo partly shown) [iloprost]
half time [1]: 20 to 30 min | relative potency [12]: equipotent

CCCCC[C@H](O)CC[C@@H]1[C@H]2Cc3cccc(OCC(=O)O)c3C[C@H]2C[C@H]1O [treprostinil]
half time [1]: less than 4 hours
